ChEMBL document CHEMBL1201862, “PubChem BioAssay data set” (2004)
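Cells were grown in 96-well plates and exposed to each compound for 48 hours at five concentrations; endpoints were interpolated linearly between bracketing concentrations, or set to the highest concentration if not reached. The concentration for 50% growth inhibition is given as GI50.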 Activity calls are given as the source filed them. Rule as the data show it: active = GI50 up to about 1.1 µM and inactive = higher.

How the values were obtained:
Test in all cases: NCI-60 cell line screen, 48 h
CCRF-CEM = test system: CCRF-CEM
COLO 205 = test system: COLO 205
HCC 2998 = test system: HCC 2998
HOP-62 = test system: HOP-62
HT-29 = test system: HT-29
IGROV-1 = test system: IGROV-1
M14 = test system: M14
MOLT-4 = test system: MOLT-4
NCI-H460 = test system: NCI-H460
OVCAR-3 = test system: OVCAR-3
OVCAR-4 = test system: OVCAR-4
OVCAR-5 = test system: OVCAR-5
OVCAR-8 = test system: OVCAR-8
SK-MEL-28 = test system: SK-MEL-28
SNB-75 = test system: SNB-75
SW-620 = test system: SW-620
TK-10 = test system: TK-10
UACC-62 = test system: UACC-62
SR = test system: SR

Measured: GI50

C[C@]12CCc3nonc3C1CC[C@@H]1C2CC[C@@]2(C)C1CC[C@@H]2O (some centres not stated)
inactive: CCRF-CEM > 100 µM | COLO 205 > 100 µM | HCC 2998 > 100 µM | HOP-62 > 100 µM | HT-29 > 100 µM | IGROV-1 > 100 µM | M14 > 100 µM | MOLT-4 > 100 µM | NCI-H460 > 100 µM | OVCAR-3 > 100 µM | OVCAR-4 > 100 µM | OVCAR-5 > 100 µM | OVCAR-8 > 100 µM | SK-MEL-28 > 100 µM | SNB-75 86.7 µM | SW-620 > 100 µM | TK-10 > 100 µM | UACC-62 > 100 µM

CC(C)C(NCc1c2ccccc2[n+]([O-])c2ccccc12)C(=O)O (configuration not stated)
inactive: CCRF-CEM 35.3 µM | COLO 205 > 100 µM | HCC 2998 > 100 µM | HOP-62 > 100 µM | HT-29 20 µM | IGROV-1 89.1 µM | M14 > 100 µM | MOLT-4 26.2 µM | NCI-H460 68.9 µM | OVCAR-3 93.1 µM | OVCAR-4 41.1 µM | OVCAR-5 > 100 µM | OVCAR-8 70 µM | SK-MEL-28 44.7 µM | SNB-75 20.9 µM | SW-620 48.6 µM | TK-10 > 100 µM | UACC-62 56.6 µM

CC(C)c1cccc(C(C)C)c1NC1=CC(=O)C(=O)c2ccccc21
inactive: CCRF-CEM > 100 µM | COLO 205 > 100 µM | HCC 2998 > 100 µM | HOP-62 > 100 µM | HT-29 > 100 µM | IGROV-1 > 100 µM | M14 > 100 µM | MOLT-4 58.5 µM | NCI-H460 > 100 µM | OVCAR-3 > 100 µM | OVCAR-5 > 100 µM | OVCAR-8 > 100 µM | SK-MEL-28 > 100 µM | SR 35.5 µM | SW-620 > 100 µM | TK-10 > 100 µM | UACC-62 > 100 µM

Clc1ccc(CNc2nc3ccccc3nc2-c2cccs2)c(Cl)c1
inactive: CCRF-CEM 98.9 µM | COLO 205 50 µM | HCC 2998 43.5 µM | HOP-62 > 100 µM | HT-29 61 µM | MOLT-4 27.9 µM | NCI-H460 > 100 µM | OVCAR-3 > 100 µM | OVCAR-5 > 100 µM | OVCAR-8 > 100 µM | SK-MEL-28 > 100 µM | SR 31.2 µM | SW-620 > 100 µM | TK-10 > 100 µM
